Consider 17 molecules from patent US20230340011A1 (Asteroid Therapeutics, priority 2022, published 2023).

As usually defined, the IC50 is the point on the concentration scale where inhibition reaches its midpoint. Low values mean inhibition by little substance, high ones a need for much substance.

The target of one assay is SREBP-2 (Homo sapiens (Human), UniProt Q12772). Briefly: In vitro assay SREBP-2: PathHunter U2OS SREBP-2 Nuclear Translocation Cell Line, U18666A-stimulated. It is filed as cell-based. Particulars: PathHunter U2OS SREBP-2 nuclear translocation cells, U18666A 10 μM, overnight (16 hours).
For another assay, the target named is LXRβ (Homo sapiens (Human), UniProt P55055). The assay is described as follows: In vitro assay LXRβ: PathHunter NHR CHO cells, LXRβ / Steroid Receptor Co-activator Peptide enzyme fragment complementation. The conditions noted are these: PathHunter NHR CHO cells, full-length human LXRβ and SRCP, chemiluminescent signal; read-out: LXRβ PPI. Type of assay: cell-based. Summed up: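 Co-activator recruitment measured by chemiluminescence after signal generation. The CHO line carries full-length human LXRβ tagged with ProLink and an SRCP–enzyme acceptor fusion in the nucleus; cells sat overnight at 37° C before testing, in charcoal-dextran filtered serum medium with 1% final vehicle.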
LXRβ, sequence (P55055 whole entry, the tested form may be a part): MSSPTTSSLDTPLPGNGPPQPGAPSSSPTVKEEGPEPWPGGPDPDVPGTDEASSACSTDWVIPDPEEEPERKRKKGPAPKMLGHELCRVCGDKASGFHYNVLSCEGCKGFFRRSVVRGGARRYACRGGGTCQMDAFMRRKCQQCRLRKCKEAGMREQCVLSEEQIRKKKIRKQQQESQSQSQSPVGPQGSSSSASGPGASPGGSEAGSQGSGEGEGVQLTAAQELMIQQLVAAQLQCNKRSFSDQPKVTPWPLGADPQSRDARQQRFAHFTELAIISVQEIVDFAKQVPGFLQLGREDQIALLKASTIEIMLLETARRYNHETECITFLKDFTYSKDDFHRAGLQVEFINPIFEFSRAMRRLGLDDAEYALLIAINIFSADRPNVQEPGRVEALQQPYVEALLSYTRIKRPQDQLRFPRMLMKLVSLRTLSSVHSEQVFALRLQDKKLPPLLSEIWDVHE

`C[C@H](CCC(=O)N1CCN(C(=O)c2ccn(C)n2)CC1)[C@H]1CC[C@H]2[C@@H]3CC=C4C[C@@H](O)CC[C@]4(C)[C@H]3CC[C@]12C` [Example 539, (4R)-4-[(1R,3aS,3bS,7S,9aR,9bS,11aR)-7-hydroxy-9a,11a-dimethyl-1H,2H,3H,3aH,3bH,4H,6H,7H,8H,9H,9aH,9bH,10H,11H,11aH-cyclopenta[a]phenanthren-1-yl]-1-[4-(1-methyl-1H-pyrazole-3-carbonyl)piperazin-1-yl]pentan-1-one] had an IC50 against SREBP-2 of under 0.25 µM. Besides, the EC50 on LXRβ was over 10 µM.

At SREBP-2, `Cc1nnc(C(=O)N2CCN(C(=O)CC[C@@H](C)[C@H]3CC[C@H]4[C@@H]5CC=C6C[C@@H](O)CC[C@]6(C)[C@H]5CC[C@]34C)CC2)o1` [Example 540, (R)-4-((3S,8S,9S,10R,13R,14S,17R)-3-hydroxy-10,13-dimethyl-2,3,4,7,8,9,10,11,12,13,14,15,16,17-tetradecahydro-1H-cyclopenta[a]phenanthren-17-yl)-1-(4-(5-methyl-1,3,4-oxadiazole-2-carbonyl)piperazin-1-yl)pentan-1-one] registered an IC50 of under 0.25 µM. Moreover, the EC50 at LXRβ is over 10 µM.

On SREBP-2, `C[C@H](CCC(=O)N(C)CCc1cccnc1)[C@H]1CC[C@H]2[C@@H]3CC=C4C[C@@H](O)CC[C@]4(C)[C@H]3CC[C@]12C` [Example 543, (R)-4-((3S,8S,9S,10R,13R,14S,17R)-3-hydroxy-10,13-dimethyl-2,3,4,7,8,9,10,11,12,13,14,15,16,17-tetradecahydro-1H-cyclopenta[a]phenanthren-17-yl)-N-methyl-N-(2-(pyridin-3-yl)ethyl)pentanamide] returned a half-inhibitory concentration (IC50) of under 0.25 µM. In addition, the EC50 at LXRβ is 0.25 to 1 µM.

`C[C@H](CCC(=O)N(C)CCc1nccs1)[C@H]1CC[C@H]2[C@@H]3CC=C4C[C@@H](O)CC[C@]4(C)[C@H]3CC[C@]12C` [Example 545, (R)-4-((3S,8S,9S,10R,13R,14S,17R)-3-hydroxy-10,13-dimethyl-2,3,4,7,8,9,10,11,12,13,14,15,16,17-tetradecahydro-1H-cyclopenta[a]phenanthren-17-yl)-N-methyl-N-(2-(thiazol-2-yl)ethyl)pentanamide] showed an IC50 at SREBP-2 of 0.25 to 1 µM. Further, the EC50 on LXRβ lay in the range of 0.25 to 1 µM.

With `C[C@H](CCC(=O)N1CCC(OCc2ccncc2)CC1)[C@H]1CC[C@H]2[C@@H]3CC=C4C[C@@H](O)CC[C@]4(C)[C@H]3CC[C@]12C` [Example 546, (R)-4-((3S,8S,9S,10R,13R,14S,17R)-3-hydroxy-10,13-dimethyl-2,3,4,7,8,9,10,11,12,13,14,15,16,17-tetradecahydro-1H-cyclopenta[a]phenanthren-17-yl)-1-(4-(pyridin-4-ylmethoxy)piperidin-1-yl)pentan-1-one], the IC50 against SREBP-2 is under 0.25 µM. Further, the EC50 at LXRβ was over 10 µM.

Consider `C[C@H](CCC(=O)N(c1ccncc1)C1CC1)[C@H]1CC[C@H]2[C@@H]3CC=C4C[C@@H](O)CC[C@]4(C)[C@H]3CC[C@]12C` [Example 548, (4R)-4-[(1R,3aS,3bS,7S,9aR,9bS,11aR)-7-hydroxy-9a,11a-dimethyl-1H,2H,3H,3aH,3bH,4H,6H,7H,8H,9H,9aH,9bH,10H,11H,11aH-cyclopenta[a]phenanthren-1-yl]-N-cyclopropyl-N-(pyridin-4-yl)pentanamide], for which, on SREBP-2, the half-inhibitory concentration (IC50) was under 0.25 µM. At LXRβ, the EC50 lay in the range of 0.25 to 1 µM.

With `COC(=O)N1CCN(C(=S)CC[C@@H](C)[C@H]2CC[C@H]3[C@@H]4CC=C5C[C@@H](O)CC[C@]5(C)[C@H]4CC[C@]23C)CC1` [Example 550, methyl4-[(4R)-4-[(1R,3aS,3bS,7S,9aR,9bS,11aR)-7-hydroxy-9a,11a-dimethyl-1H,2H,3H,3aH,3bH,4H,6H,7H,8H,9H,9aH,9bH,10H,11H,11aH-cyclopenta[a]phenanthren-1-yl]pentanethioyl]piperazine-1-carboxylate], at SREBP-2, the IC50 was under 0.25 µM. Also, the EC50 on LXRβ is over 10 µM.

Consider `CSC(=O)N1CCN(C(=O)CC[C@@H](C)[C@H]2CC[C@H]3[C@@H]4CC=C5C[C@@H](O)CC[C@]5(C)[C@H]4CC[C@]23C)CC1` [Example 551, (4R)-4-[(1R,3aS,3bS,7S,9aR,9bS,11aR)-7-hydroxy-9a,11a-dimethyl-1H,2H,3H,3aH,3bH,4H,6H,7H,8H,9H,9aH,9bH,10H,11H,11aH-cyclopenta[a]phenanthren-1-yl]-1-{4-[(methylsulfanyl)carbonyl]piperazin-1-yl}pentan-1-one], for which, at SREBP-2, the IC50 was under 0.25 µM. The EC50 on LXRβ was over 10 µM.

The molecule `COC(=O)N1CCC12CN(C(=O)CC[C@@H](C)[C@H]1CC[C@H]3[C@@H]4CC=C5C[C@@H](O)CC[C@]5(C)[C@H]4CC[C@]13C)C2` [Example 552, methyl6-((R)-4-((3S,8S,9S,10R,13R,14S,17R)-3-hydroxy-10,13-dimethyl-2,3,4,7,8,9,10,11,12,13,14,15,16,17-tetradecahydro-1H-cyclopenta[a]phenanthren-17-yl)pentanoyl)-1,6-diazaspiro[3.3]heptane-1-carboxylate] showed an IC50 on SREBP-2 of 1 to 10 µM. Also, the EC50 at LXRβ was over 10 µM.

Turning to `COC(=O)N1CCSC12CN(C(=O)CC[C@@H](C)[C@H]1CC[C@H]3[C@@H]4CC=C5C[C@@H](O)CC[C@]5(C)[C@H]4CC[C@]13C)C2` [Example 553, Methyl 2-((R)-4-((3S,8S,9S,10R,13R,14S,17R)-3-hydroxy-10,13-dimethyl-2,3,4,7,8,9,10,11,12,13,14,15,16,17-tetradecahydro-1H-cyclopenta[a]phenanthren-17-yl)pentanoyl)-5-thia-2,8-diazaspiro[3.4]octane-δ-carboxylate], the IC50 at SREBP-2 lay in the range of 0.25 to 1 µM. Moreover, the EC50 at LXRβ was over 10 µM.

For the molecule `COC(=O)N1CCC2(CCN(C(=O)CC[C@@H](C)[C@H]3CC[C@H]4[C@@H]5CC=C6C[C@@H](O)CC[C@]6(C)[C@H]5CC[C@]34C)C2)C1` (stereo partly drawn) [Example 554, Methyl 7-((R)-4-((3S,8S,9S,10R,13R,14S,17R)-3-hydroxy-10,13-dimethyl-2,3,4,7,8,9,10,11,12,13,14,15,16,17-tetradecahydro-1H-cyclopenta[a]phenanthren-17-yl)pentanoyl)-2,7-diazaspiro[4.4]nonane-2-carboxylate], the IC50 against SREBP-2 was under 0.25 µM. Also, the EC50 on LXRβ is over 10 µM.

On SREBP-2, `C[C@H](CCC(=O)N1CC(C)(CO)C1)[C@H]1CC[C@H]2[C@@H]3CC=C4C[C@@H](O)CC[C@]4(C)[C@H]3CC[C@]12C` [Example 555, (R)-4-((3S,8S,9S,10R,13R,14S,17R)-3-hydroxy-10,13-dimethyl-2,3,4,7,8,9,10,11,12,13,14,15,16,17-tetradecahydro-1H-cyclopenta[a]phenanthren-17-yl)-1-(3-(hydroxymethyl)-3-methylazetidin-1-yl)pentan-1-one] had an IC50 of under 0.25 µM. The EC50 at LXRβ was over 10 µM.

In turn, `C[C@H](CCC(=O)N1CCN(C(C)(C)C)CC1)[C@H]1CC[C@H]2[C@@H]3CC=C4C[C@@H](O)CC[C@]4(C)[C@H]3CC[C@]12C` [Example 557, (4R)-4-[(1R,3aS,3bS,7S,9aR,9bS,11aR)-7-hydroxy-9a,11a-dimethyl-1H,2H,3H,3aH,3bH,4H,6H,7H,8H,9H,9aH,9bH,10H,11H,11aH-cyclopenta[a]phenanthren-1-yl]-1-(4-tert-butylpiperazin-1-yl)pentan-1-one] showed an IC50 on SREBP-2 of 0.25 to 1 µM. The EC50 at LXRβ was over 10 µM.

In turn, `C[C@H](CCC(=O)N1CCN(c2ccnc(O)n2)CC1)[C@H]1CC[C@H]2[C@@H]3CC=C4C[C@@H](O)CC[C@]4(C)[C@H]3CC[C@]12C` [Example 559, (R)-4-((3S,8S,9S,10R,13R,14S,17R)-3-hydroxy-10,13-dimethyl-2,3,4,7,8,9,10,11,12,13,14,15,16,17-tetradecahydro-1H-cyclopenta[a]phenanthren-17-yl)-1-(4-(2-hydroxypyrimidin-4-yl)piperazin-1-yl)pentan-1-one] displayed an IC50 against SREBP-2 of under 0.25 µM. Also, at LXRβ, the EC50 was over 10 µM.

`C[C@H](CCC(=O)N1CCN(c2ccnc(N)n2)CC1)[C@H]1CC[C@H]2[C@@H]3CC=C4C[C@@H](O)CC[C@]4(C)[C@H]3CC[C@]12C` [Example 560, (R)-1-(4-(2-aminopyrimidin-4-yl)piperazin-1-yl)-4-((3S,8S,9S,10R,13R,14S,17R)-3-hydroxy-10,13-dimethyl-2,3,4,7,8,9,10,11,12,13,14,15,16,17-tetradecahydro-1H-cyclopenta[a]phenanthren-17-yl)pentan-1-one]: the IC50 at SREBP-2 is under 0.25 µM. Besides, on LXRβ, the EC50 was over 10 µM.

For `C[C@H](CCC(=O)N1CCN(c2ccnc(N(C)C)n2)CC1)[C@H]1CC[C@H]2[C@@H]3CC=C4C[C@@H](O)CC[C@]4(C)[C@H]3CC[C@]12C` [Example 562, (R)-1-(4-(2-(dimethylamino)pyrimidin-4-yl)piperazin-1-yl)-4-((3S,8S,9S,10R,13R,14S,17R)-3-hydroxy-10,13-dimethyl-2,3,4,7,8,9,10,11,12,13,14,15,16,17-tetradecahydro-1H-cyclopenta[a]phenanthren-17-yl)pentan-1-one], the IC50 against SREBP-2 was under 0.25 µM. Besides, on LXRβ, the EC50 was over 10 µM.

The molecule `CCOc1nccc(N2CCN(C(=O)CC[C@@H](C)[C@H]3CC[C@H]4[C@@H]5CC=C6C[C@@H](O)CC[C@]6(C)[C@H]5CC[C@]34C)CC2)n1` [Example 563, (R)-1-(4-(2-ethoxypyrimidin-4-yl)piperazin-1-yl)-4-((3S,8S,9S,10R,13R,14S,17R)-3-hydroxy-10,13-dimethyl-2,3,4,7,8,9,10,11,12,13,14,15,16,17-tetradecahydro-1H-cyclopenta[a]phenanthren-17-yl)pentan-1-one] yielded an IC50 against SREBP-2 of under 0.25 µM. The EC50 on LXRβ is over 10 µM.
